Results: article PMC3269340, “Pharmacokinetics of memantine in rats and mice” (PLoS Currents, 2012)

Experiments:
human PEPT2 [1] = biological target: T1, human PEPT2 (Homo sapiens, UniProt Q16348); experiment: Direct uptake transporter assay, PEPT2; format: in vitro ADME; conditions: for Accumulation in transporter transfected cells: PEPT2-transfected cells; for Accumulation in parental cells: parental CHO cells (PEPT2 line)
T1 construct: expressed in transfected cells; host or cells: CHO cells
T1 sequence (Q16348 1-729): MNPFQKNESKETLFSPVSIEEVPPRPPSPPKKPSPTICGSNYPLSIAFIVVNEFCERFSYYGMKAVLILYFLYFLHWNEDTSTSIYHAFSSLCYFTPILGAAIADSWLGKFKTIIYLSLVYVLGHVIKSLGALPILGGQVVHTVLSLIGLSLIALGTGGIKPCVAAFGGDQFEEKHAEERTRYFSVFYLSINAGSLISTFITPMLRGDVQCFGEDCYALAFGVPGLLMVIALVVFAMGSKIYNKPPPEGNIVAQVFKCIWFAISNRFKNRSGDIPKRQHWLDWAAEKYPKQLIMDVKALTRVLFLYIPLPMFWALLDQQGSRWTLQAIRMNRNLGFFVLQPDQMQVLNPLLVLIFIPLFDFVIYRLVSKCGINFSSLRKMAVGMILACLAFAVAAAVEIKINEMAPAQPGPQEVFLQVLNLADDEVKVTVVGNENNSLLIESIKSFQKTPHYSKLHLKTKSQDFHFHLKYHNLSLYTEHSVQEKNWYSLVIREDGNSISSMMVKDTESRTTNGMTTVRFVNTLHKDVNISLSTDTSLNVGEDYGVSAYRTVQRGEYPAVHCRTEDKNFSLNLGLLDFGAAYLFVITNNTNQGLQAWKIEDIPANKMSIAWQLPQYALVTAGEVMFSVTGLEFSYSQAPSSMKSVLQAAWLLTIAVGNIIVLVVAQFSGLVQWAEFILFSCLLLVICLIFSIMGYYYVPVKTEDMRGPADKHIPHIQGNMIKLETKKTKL
Description: To determine whether memantine is a substrate of the human OATP2B1 (OATP-B), OCT1, OCT2, OAT3, PEPT1, PEPT2 uptake transporters.
The potential for memantine to be a substrate of an uptake transporter was determined directly by comparing the uptake of memantine into cells expressing the selected uptake transporter with its uptake into control cells. Memantine was added to transporter-expressing and control cells at two concentrations (PEPT1 and PEPT2 100 and 300 µM, OCT1 and OCT2 50 and 100 µM, OATP2B1 100 and 300 µM), and incubated with cells for 2 and 20 min at 37±1°C (75 µL final incubation volume). The final concentrations of memantine were selected to be the IC50 of reporter substrate transport inhibition established in the indirect transporter assay and one order of magnitude lower. Incubations were carried out as described in the indirect uptake transporter assays. The concentration of memantine was determined by LC-MS/MS.

human PEPT2 [2] = biological target: T1, human PEPT2; experiment: Indirect uptake transporter assay, PEPT2; format: in vitro ADME
Description: To determine whether memantine is an inhibitor of the human OATP2B1 (OATP-B), OCT1, OCT2, OAT3, PEPT1, PEPT2 uptake transporters. The standard uptake transporter assay is an indirect, inhibitory-type screening assay, performed with cold test article, which in this case was memantine. It provides information on any interaction (substrate or inhibitor) between selected uptake transporters and memantine that would affect the transport of the reporter compound. […] A radiolabeled reporter substrate is transported into the cells transfected with the selected human uptake transporter, and the inhibitory effect of memantine on the transport of this reporter substrate is measured. Values are presented on a relative scale; 100% defined as transport in the presence of the solvent and without memantine (no inhibition), and 0% defined as transport detected without transporter activity. IC50 is defined as the concentration required to inhibit the transport of the reporter substrate by 50%. […]
After the experiment cells were rinsed with 2 x 100µl of Krebs-Henseleit buffer and lysed with 50 µl of 0.1M NaOH. ^3H-estrone-3-sulfate, ^14C-TEA, ^14C-metformin and ^3H-Gly-Sar transport was determined by total radioactivity by transferring an aliquot (35µl) from each well to a vial containing liquid scintillant for analysis.

SMILES: CC12CC3CC(C)(C1)CC(N)(C3)C2 [memantine]
- Highest Fold Activation (human PEPT2 [1]; PEPT2, 100µM, 20 min): 0.97 (100µM, 20 min)
- Accumulation in transporter transfected cells (human PEPT2 [1]; 2 min, 100 µM): 937 pmol/mg
- Accumulation in transporter transfected cells (human PEPT2 [1]; 2 min, 300 µM): 1871 pmol/mg
- Accumulation in transporter transfected cells (human PEPT2 [1]; 20 min, 100 µM): 897 pmol/mg
- Accumulation in transporter transfected cells (human PEPT2 [1]; 20 min, 300 µM): 1759 pmol/mg
- substrate of PEPT2 uptake transporter (human PEPT2 [1]; no preferential accumulation in transfected over parental cells): not a substrate
- Accumulation in parental cells (human PEPT2 [1]; 2 min, 100 µM): 965 pmol/mg
- Accumulation in parental cells (human PEPT2 [1]; 2 min, 300 µM): 2011 pmol/mg
- Accumulation in parental cells (human PEPT2 [1]; 20 min, 100 µM): 1219 pmol/mg
- Accumulation in parental cells (human PEPT2 [1]; 20 min, 300 µM): 2056 pmol/mg
- IC50 (human PEPT2 [2]; PEPT2, probe printed in Table 5: E3S (0.3µM), methods and text: Gly-Sar): ND (Not Determined (< 50% inhibition))
- inhibition at 300 µM (human PEPT2 [2]; at 300 µM, read-out: inhibition of PEPT2-mediated glycylsarcosine transport): 22%
